We go through 19 compounds from patent publication US12581252B2, “Substituted pyrrolo[3,4-b]pyridines as PI3K-α inhibitors” (Relay Therapeutics, Inc., priority 2020, dated 2026).

One may read the IC50 as the concentration that inhibits the measured activity by half.

The target in the first test is H1047R PIK3CA enzyme (Homo sapiens, UniProt P42336, H1047R). The test can be described thus: ADP-Glo Biochemical PIK3CA Kinase Assay.
Sequence of H1047R PIK3CA enzyme (P42336 whole entry H1047R): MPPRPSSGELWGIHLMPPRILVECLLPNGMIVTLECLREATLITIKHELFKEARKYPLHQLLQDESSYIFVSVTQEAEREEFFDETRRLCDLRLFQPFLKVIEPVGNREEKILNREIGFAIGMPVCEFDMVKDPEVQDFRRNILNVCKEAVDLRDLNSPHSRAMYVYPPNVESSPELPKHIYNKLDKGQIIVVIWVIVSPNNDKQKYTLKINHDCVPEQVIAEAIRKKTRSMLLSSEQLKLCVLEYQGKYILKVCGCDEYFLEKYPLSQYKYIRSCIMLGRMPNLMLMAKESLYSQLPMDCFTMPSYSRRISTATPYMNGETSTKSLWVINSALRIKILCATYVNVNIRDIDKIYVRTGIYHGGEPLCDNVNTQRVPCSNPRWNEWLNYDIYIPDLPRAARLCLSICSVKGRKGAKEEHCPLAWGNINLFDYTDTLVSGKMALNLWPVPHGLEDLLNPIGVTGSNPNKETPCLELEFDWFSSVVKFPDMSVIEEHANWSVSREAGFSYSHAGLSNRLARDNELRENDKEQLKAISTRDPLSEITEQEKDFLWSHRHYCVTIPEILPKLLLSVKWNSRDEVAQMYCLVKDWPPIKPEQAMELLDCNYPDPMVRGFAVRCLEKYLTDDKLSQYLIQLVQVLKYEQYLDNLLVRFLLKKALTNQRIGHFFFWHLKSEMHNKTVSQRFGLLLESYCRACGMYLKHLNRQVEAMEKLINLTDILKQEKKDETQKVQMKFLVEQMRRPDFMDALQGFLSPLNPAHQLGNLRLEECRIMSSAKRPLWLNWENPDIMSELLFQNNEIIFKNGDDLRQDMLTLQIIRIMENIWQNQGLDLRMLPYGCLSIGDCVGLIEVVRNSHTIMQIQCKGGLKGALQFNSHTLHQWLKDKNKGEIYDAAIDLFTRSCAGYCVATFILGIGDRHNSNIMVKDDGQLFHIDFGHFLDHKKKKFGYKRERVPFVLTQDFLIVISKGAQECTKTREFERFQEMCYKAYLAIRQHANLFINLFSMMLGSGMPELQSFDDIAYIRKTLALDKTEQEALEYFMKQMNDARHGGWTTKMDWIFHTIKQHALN
Sequence of H1047R PIK3CA enzyme (P27986 whole entry partner): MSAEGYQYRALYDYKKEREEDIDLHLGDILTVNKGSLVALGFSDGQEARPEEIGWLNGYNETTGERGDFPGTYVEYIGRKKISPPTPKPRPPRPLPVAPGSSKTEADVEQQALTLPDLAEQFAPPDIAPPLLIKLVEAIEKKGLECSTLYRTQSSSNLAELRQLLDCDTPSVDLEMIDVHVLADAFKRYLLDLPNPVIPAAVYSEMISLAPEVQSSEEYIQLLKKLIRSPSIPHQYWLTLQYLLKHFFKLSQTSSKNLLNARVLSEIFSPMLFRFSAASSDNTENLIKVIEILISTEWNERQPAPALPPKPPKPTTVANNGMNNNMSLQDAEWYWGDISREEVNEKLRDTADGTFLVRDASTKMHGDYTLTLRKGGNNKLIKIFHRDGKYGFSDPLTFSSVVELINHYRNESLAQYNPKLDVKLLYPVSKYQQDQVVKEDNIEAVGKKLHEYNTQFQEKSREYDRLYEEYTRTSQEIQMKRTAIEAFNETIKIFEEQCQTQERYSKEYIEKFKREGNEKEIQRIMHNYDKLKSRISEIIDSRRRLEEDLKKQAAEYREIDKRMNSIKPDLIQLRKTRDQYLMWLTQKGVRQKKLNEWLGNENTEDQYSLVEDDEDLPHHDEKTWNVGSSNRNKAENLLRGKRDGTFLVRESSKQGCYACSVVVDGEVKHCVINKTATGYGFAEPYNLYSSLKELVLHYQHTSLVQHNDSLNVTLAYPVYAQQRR
Details: not given
Turning to `O=C1N[C@@H](c2cc(F)ccc2Cl)c2c(NC(=O)N3C[C@@](O)(C(F)F)c4ccccc43)cccc21` (single isomer, unassigned) [Compound I-2487], the IC50 is at most 100 nM.

The compound `O=C1N[C@@H](c2cc(F)ccc2Cl)c2c(NC(=O)N3C[C@](O)(C(F)(F)F)c4cc(F)ccc43)ccc(-n3cccn3)c21` (single isomer, unassigned) [Compound I-2497] displayed a half-maximal inhibitory concentration (IC50) of at most 100 nM.

With `C[C@@H](C#N)Cn1cc(-c2cc(NC(=O)N3C[C@@H](O)c4cc(F)ccc43)c3c(c2)C(=O)N[C@H]3c2cc(F)ccc2Cl)cn1` (single isomer, unassigned) [Compound I-2503], the IC50 is at most 100 nM.

`O=C1N[C@@H](c2cc(F)ccc2Cl)c2c(NC(=O)N3C[C@@](O)(C(F)(F)F)c4ccccc43)cc(Cl)cc21` (single isomer, unassigned) [Compound I-2509]: the IC50 was at most 100 nM.

For `O=C1N[C@@H](c2cc(F)ccc2Cl)c2c(NC(=O)N3C[C@@](O)(C(F)(F)F)c4cc(F)ccc43)cc(Cl)cc21` (single isomer, unassigned) [Compound I-2513], the IC50 was at most 100 nM.

For `O=C1N[C@@H](c2cc(F)ccc2Cl)c2c(NC(=O)N3C[C@@](O)(C(F)(F)F)c4cc(F)ccc43)cccc21` (single isomer, unassigned) [Compound I-2518], the IC50 was at most 100 nM.

Compound `O=C1N[C@@H](c2cc(F)ccc2Cl)c2c(NC(=O)N3C[C@](O)(C(F)(F)F)c4cc(F)ccc43)ccc(-n3ccnn3)c21` (single isomer, unassigned) [Compound I-2520] yielded a concentration for half-maximal inhibition (IC50) of at most 100 nM.

The compound `O=C1N[C@@H](c2cc(F)ccc2Cl)c2c(NC(=O)N3C[C@](O)(C(F)(F)F)c4cc(F)ccc43)ccc(-n3nccn3)c21` (single isomer, unassigned) [Compound I-2525] showed an IC50 of at most 100 nM.

`N#CCc1cc(NC(=O)N2C[C@@H](O)c3cc(F)ccc32)c2c(c1)C(=O)N[C@H]2c1cc(F)ccc1Cl` (single isomer, unassigned) [Compound I-2537] came in with a half-inhibitory concentration (IC50) of at most 100 nM.

In turn, `COCc1cc(NC(=O)N2C[C@@](O)(C(F)(F)F)c3cc(F)ccc32)c2c(c1)C(=O)N[C@@H]2c1cc(F)ccc1Cl` (single isomer, unassigned) [Compound I-2541] yielded a concentration for half-maximal inhibition (IC50) of at most 100 nM.

As for `O=C1N[C@H](c2cc(F)ccc2Cl)c2c(NC(=O)N3C[C@@](O)(C(F)(F)F)c4cc(F)ccc43)cc(-n3ccnn3)cc21` (single isomer, unassigned) [Compound I-2547], the IC50 was at most 100 nM.

Take `N#CC1(COc2cc(NC(=O)N3C[C@@H](O)c4cc(F)ccc43)c3c(c2)C(=O)N[C@@H]3c2cc(F)ccc2Cl)CC1` (single isomer, unassigned) [Compound I-2552]: the IC50 is at most 100 nM.

`O=C1N[C@H](c2cc(F)ccc2Cl)c2c(NC(=O)N3C[C@](O)(C(F)F)c4cc(F)ccc43)cccc21` (single isomer, unassigned) [Compound I-2558] gave an IC50 of at most 100 nM.

In the case of `N#Cc1cc(NC(=O)N2C[C@@](O)(C(F)(F)F)c3cc(F)ccc32)c2c(c1)C(=O)N[C@@H]2c1cc(F)ccc1Cl` (single isomer, unassigned) [Compound I-2560], the 50% inhibitory concentration (IC50) was at most 100 nM.

As for `N#Cc1cc(NC(=O)N2C[C@](O)(C(F)(F)F)c3cc(F)ccc32)c2c(c1)C(=O)N[C@@H]2c1cc(F)ccc1Cl` (single isomer, unassigned) [Compound I-2562], the concentration for half-maximal inhibition (IC50) is at most 100 nM.

As to `N#Cc1cc(NC(=O)N2C[C@@](O)(C(F)(F)F)c3ccccc32)c2c(c1)C(=O)N[C@@H]2c1cc(F)ccc1Cl` (single isomer, unassigned) [Compound I-2564], the IC50 was at most 100 nM.

The compound `O=C1N[C@H](c2cc(F)ccc2Cl)c2c(NC(=O)N3C[C@@](O)(C(F)(F)F)c4cc(F)ccc43)cc(-n3nccn3)cc21` (single isomer, unassigned) [Compound I-2569] had an IC50 of at most 100 nM.

For the compound `CC(=O)Nc1cc(NC(=O)N2C[C@](O)(C(F)(F)F)c3cc(F)ccc32)c2c(c1)C(=O)N[C@@H]2c1cc(F)ccc1Cl` (single isomer, unassigned) [Compound I-2573], the 50% inhibitory concentration (IC50) is at most 100 nM.

As for `O=C1N[C@H](c2cc(F)ccc2Cl)c2c(NC(=O)N3C[C@](O)(C(F)(F)F)c4cc(F)ccc43)cc(C(F)F)cc21` (single isomer, unassigned) [Compound I-2579], the IC50 is at most 100 nM.

System in another test: not listed separately
Kind of test: cells. To be noted: Homo sapiens, MCF-10A, read-out: MCF10A IC50.
As to `O=C1N[C@@H](c2cc(F)ccc2Cl)c2c(NC(=O)N3C[C@@](O)(C(F)F)c4ccccc43)cccc21` (single isomer, unassigned) [Compound I-2487], the concentration for half-maximal inhibition (IC50) was below 1000 nM.

Regarding `O=C1N[C@@H](c2cc(F)ccc2Cl)c2c(NC(=O)N3C[C@](O)(C(F)(F)F)c4cc(F)ccc43)ccc(-n3cccn3)c21` (single isomer, unassigned) [Compound I-2497], the IC50 was below 1000 nM.

Take `C[C@@H](C#N)Cn1cc(-c2cc(NC(=O)N3C[C@@H](O)c4cc(F)ccc43)c3c(c2)C(=O)N[C@H]3c2cc(F)ccc2Cl)cn1` (single isomer, unassigned) [Compound I-2503]: the concentration for half-maximal inhibition (IC50) fell in the range of 5000 to 10000 nM.

Consider `O=C1N[C@@H](c2cc(F)ccc2Cl)c2c(NC(=O)N3C[C@@](O)(C(F)(F)F)c4ccccc43)cc(Cl)cc21` (single isomer, unassigned) [Compound I-2509], for which the IC50 is below 1000 nM.

On to `O=C1N[C@@H](c2cc(F)ccc2Cl)c2c(NC(=O)N3C[C@@](O)(C(F)(F)F)c4cc(F)ccc43)cc(Cl)cc21` (single isomer, unassigned) [Compound I-2513], for which the IC50 was below 1000 nM.

As to `O=C1N[C@@H](c2cc(F)ccc2Cl)c2c(NC(=O)N3C[C@@](O)(C(F)(F)F)c4cc(F)ccc43)cccc21` (single isomer, unassigned) [Compound I-2518], the IC50 was below 1000 nM.

Consider `O=C1N[C@@H](c2cc(F)ccc2Cl)c2c(NC(=O)N3C[C@](O)(C(F)(F)F)c4cc(F)ccc43)ccc(-n3ccnn3)c21` (single isomer, unassigned) [Compound I-2520], for which the half-inhibitory concentration (IC50) was below 1000 nM.

With `O=C1N[C@@H](c2cc(F)ccc2Cl)c2c(NC(=O)N3C[C@](O)(C(F)(F)F)c4cc(F)ccc43)ccc(-n3nccn3)c21` (single isomer, unassigned) [Compound I-2525], the half-inhibitory concentration (IC50) was below 1000 nM.

Consider `N#CCc1cc(NC(=O)N2C[C@@H](O)c3cc(F)ccc32)c2c(c1)C(=O)N[C@H]2c1cc(F)ccc1Cl` (single isomer, unassigned) [Compound I-2537], for which the IC50 is below 1000 nM.

`COCc1cc(NC(=O)N2C[C@@](O)(C(F)(F)F)c3cc(F)ccc32)c2c(c1)C(=O)N[C@@H]2c1cc(F)ccc1Cl` (single isomer, unassigned) [Compound I-2541]: the IC50 was below 1000 nM.

On to `O=C1N[C@H](c2cc(F)ccc2Cl)c2c(NC(=O)N3C[C@@](O)(C(F)(F)F)c4cc(F)ccc43)cc(-n3ccnn3)cc21` (single isomer, unassigned) [Compound I-2547], for which the half-inhibitory concentration (IC50) is below 1000 nM.

For the compound `N#CC1(COc2cc(NC(=O)N3C[C@@H](O)c4cc(F)ccc43)c3c(c2)C(=O)N[C@@H]3c2cc(F)ccc2Cl)CC1` (single isomer, unassigned) [Compound I-2552], the half-maximal inhibitory concentration (IC50) was in the range of 1000 to 5000 nM.

With `O=C1N[C@H](c2cc(F)ccc2Cl)c2c(NC(=O)N3C[C@](O)(C(F)F)c4cc(F)ccc43)cccc21` (single isomer, unassigned) [Compound I-2558], the concentration for half-maximal inhibition (IC50) was below 1000 nM.

Take `N#Cc1cc(NC(=O)N2C[C@@](O)(C(F)(F)F)c3cc(F)ccc32)c2c(c1)C(=O)N[C@@H]2c1cc(F)ccc1Cl` (single isomer, unassigned) [Compound I-2560]: the half-inhibitory concentration (IC50) is below 1000 nM.

Regarding `N#Cc1cc(NC(=O)N2C[C@](O)(C(F)(F)F)c3cc(F)ccc32)c2c(c1)C(=O)N[C@@H]2c1cc(F)ccc1Cl` (single isomer, unassigned) [Compound I-2562], the IC50 was below 1000 nM.

In the case of `N#Cc1cc(NC(=O)N2C[C@@](O)(C(F)(F)F)c3ccccc32)c2c(c1)C(=O)N[C@@H]2c1cc(F)ccc1Cl` (single isomer, unassigned) [Compound I-2564], the IC50 was below 1000 nM.

Consider `O=C1N[C@H](c2cc(F)ccc2Cl)c2c(NC(=O)N3C[C@@](O)(C(F)(F)F)c4cc(F)ccc43)cc(-n3nccn3)cc21` (single isomer, unassigned) [Compound I-2569], for which the IC50 was below 1000 nM.

In the case of `CC(=O)Nc1cc(NC(=O)N2C[C@](O)(C(F)(F)F)c3cc(F)ccc32)c2c(c1)C(=O)N[C@@H]2c1cc(F)ccc1Cl` (single isomer, unassigned) [Compound I-2573], the concentration for half-maximal inhibition (IC50) is below 1000 nM.

Regarding `O=C1N[C@H](c2cc(F)ccc2Cl)c2c(NC(=O)N3C[C@](O)(C(F)(F)F)c4cc(F)ccc43)cc(C(F)F)cc21` (single isomer, unassigned) [Compound I-2579], the IC50 was below 1000 nM.
